Measurements: patent US5069895A, “Methods for the treatment of alcohol intoxication and dependence” (priority 1989, dated 1991)
Where two headings read alike, the source gives them in different places.

How the values were obtained:
S49 wild type cells [1] = assay: receptor-stimulated cAMP levels after chronic ethanol; type: cell-based; settings: for activity at 100000 µM: wild type, 100 mM EtOH 48 hr
Method: (§1) S49 wild type (WT) and adenosine transport mutants (80-2A6 and 160-D4) were grown in defined media (11, without phytohemagglutinin) with 1 U/ml ADA for at least 2 weeks. They were then grown in the presence or absence of 100 mM ethanol with or without 1.5 U/ml ADA for 48 hours. Accumulation of adenosine over 5 min was determined by incubating 1.0×10^7 cells/ml in sterilized PBS in the absence or presence of 200 mM ethanol. Extracellular adenosine concentrations were determined as in FIG. 2. Accumulation of adenosine over 24 hours in the absence or presence of 100 mM ethanol was determined as described by Green (1980) supra.. Assays for receptor-stimulated cAMP levels were carried out as in FIG. 3. […] Values represent means ±SEM. Number of determinations in indicated in parentheses.

S49 wild type cells [2] = assay: agonist stimulation of cAMP levels over basal
Method: as §1

mice = settings: cited from earlier work; for intoxicating effect of ethanol: administration over a 10-day period to mice, Dar and Wooles (1986); for ethanol-induced ataxia: pretreated mice, Dar et al. (1987); for effect on symptoms of ethanol intoxication: Dar et al. (1985)
NG108-15 cells [3] = assay: acute effect of ethanol on endogenous cAMP levels; type: cell-based
Method: NG108-15 cells were grown in defined media as described (Gordon et al. (1986) supra.) to a final density of 12-20×10^6 cells per flask. […] Bars represent means ±SEM, n=4-9.

[4] = tested on: C1300 neuroblastoma cells; settings: endogenously released, overnight culture; cited from earlier work
[5] = tested on: adenosine transport in freshly isolated lymphocytes; settings: lymphocytes from alcoholics vs nonalcoholics, 200 mM ethanol 3 min, uptake at 10 seconds
Method: Uptake of [^3 H]-adenosine in freshly isolated lymphocytes from nonalcoholics and actively drinking alcoholics was also measured.

NG108-15 cells [6] = settings: 200 mM ethanol, 10 min
Method: NG108-15 cells (5×10^6 cells/well) were incubated with 2 ml of PBS in the presence or absence of 200 mM ethanol for 10 min. Fluorescent derivatives of adenosine were prepared (Green (1980) supra.) and injected onto a reverse-phase HPLC column equilibrated with 1.2 mM KPO4, pH 5 and eluted with a 0-60% methanol gradient. Peak areas were compared with those of known amounts of 1,N^6 -ethenoadenosine.

S49 wild type cells [7] = tested on: S49 wild type cells
Method: as §1

[8] = tested on: S49 adenosine transport mutant 80-2A6
Method: as §1

cultured lymphocytes = assay: cells; settings: for activation at 100000 µM: Homo sapiens, Lymphocyte, 5 min
Method: Lymphocytes from alcoholics and nonalcoholics were grown in culture for 6 days, and 100 mM ethanol was added for 24 hours. The cells were washed, preincubated for 5 minutes in the absence of ethanol, and then incubated in the absence and presence of 100 mM ethanol for 5 minutes. Extracellular adenosine was measured by HPLC (n=5-7 for alcoholics and nonalcoholics).

[9] = tested on: S49 adenosine transport mutant 80-2A6; assay: cells; settings: 48 h
Method: as §1

[10] = tested on: S49 adenosine transport mutant 160-D4; assay: cells; settings: 48 h
Method: as §1

[11] = read-out: cAMP levels, 1 uM PGE1
[12] = read-out: cAMP levels, 100 uM PIA

In the case of `OC[C@H]1O[C@@H](n2cnc3c(O)ncnc32)[C@H](O)[C@@H]1O` [inosine, reference compound], the “desensitization of the adenosine receptor” value (S49 wild type cells [1]; S49 wild type cells exposed 48 hr, data not shown) is reported as “did not desensitize the adenosine receptor”.
In the case of `CCCCC[C@H](O)/C=C/[C@H]1[C@H](O)CC(=O)[C@@H]1CCCCCCC(=O)O` [PGE1], the maximal fold induction (S49 wild type cells [2]; Mus musculus, read-out: increase in cAMP levels over basal) is reported as 13.5 ± 3.5.
For `Cn1c(=O)c2c(ncn2C)n(C)c1=O` [caffeine], the “intoxicating effect of ethanol” value (mice) is given as “increased” and the ethanol-induced ataxia (mice) is given as “significant potentiation”.
For `Cn1c(=O)c2[nH]cnc2n(C)c1=O` [theophylline], the “effect on symptoms of ethanol intoxication” value (mice) is given as “ameliorated certain symptoms of intoxication while having no effect on others”, the “intoxicating effect of ethanol” value (mice) is given as “appeared to have no effect” and the ethanol-induced ataxia (mice) is given as “significant potentiation”.
In the case of `OCCN(CCO)c1nc(N2CCCCC2)c2nc(N(CCO)CCO)nc(N3CCCCC3)c2n1` [Dipyridamole], the “effect on symptoms of ethanol intoxication” value (mice) is given as “potentiating effect on certain symptoms of ethanol intoxication”.
With `C[C@H](Cc1ccccc1)Nc1ncnc2c1ncn2[C@@H]1O[C@H](CO)[C@@H](O)[C@H]1O` [PIA] the “increase in cAMP levels over basal” value (S49 wild type cells [2]; maximally-effective concentration) was 1.92±0.41 fold.
For `CC(C)Cn1c(=O)n(C)c(=O)c2[nH]cnc21` [IBMX, isobutylmethylxanthine], the “effect on ethanol-induced increase in cAMP levels” value (NG108-15 cells [3]; co-incubation with ethanol 10 min, 1 U/ml ADA or isobutylmethylxanthine) is listed as “completely blocked”, the “intoxicating effect of ethanol” value (mice) is listed as “increased” and the ethanol-induced ataxia (mice) is listed as “significant potentiation”.
In the case of `Nc1ncnc2c1ncn2[C@@H]1O[C@H](CO)[C@@H](O)[C@H]1O` [adenosine], the “concentration sufficient to desensitize adenosine receptor-dependent cAMP production” value [4] is given as 10 to 20 nM.
With `CCO` [ethanol] the “inhibition of adenosine uptake” value [5] was “less inhibition by ethanol compared to uptake in cells from nonalcoholics”, the extracellular adenosine concentration (NG108-15 cells [6]) was 37±1.2 nM/5×10^6 cells and the “extracellular adenosine, EtOH” value (S49 wild type cells [7]; 5 min, EtOH 200 nM as printed) was 17.6 ± 3.6 nM/10^7 cells. For the same molecule, the “extracellular adenosine, EtOH” value (S49 wild type cells [7]; 24 hr, EtOH 100 nM as printed) was 56.7 ± 10.2 nM/10^7 cells, the “extracellular adenosine, EtOH” value ([8]; 80-2A6, 5 min, EtOH 200 mM) was 0 nM/10^7 cells and the “extracellular adenosine, EtOH” value ([8]; 80-2A6, 24 hr, EtOH 100 mM) was 0 nM/10^7 cells. For the same molecule, the activation at 200000 µM (NG108-15 cells [3]; Homo sapiens, NG108-15, 10 min, 200 mM ethanol, 10 min, no added agonist, read-out: increase in intracellular cAMP concentration) was 60%, the activation at 100000 µM (cultured lymphocytes; read-out: increase in extracellular adenosine on rechallenge, lymphocytes from alcoholics, after chronic ethanol, rechallenge 100 mM ethanol) was 73% and the activation at 100000 µM (cultured lymphocytes; read-out: increase in extracellular adenosine, lymphocytes from alcoholics, 100 mM ethanol 5 min) was 37%. For the same molecule, the activation at 100000 µM (cultured lymphocytes; read-out: increase in extracellular adenosine, lymphocytes from nonalcoholics, 100 mM ethanol 5 min) was 17%, the “increase in extracellular adenosine on rechallenge” value (cultured lymphocytes; lymphocytes from nonalcoholics, after 100 mM ethanol 24 hours, rechallenge) was “did not increase extracellular adenosine” and the activity at 100000 µM [9, 11] was 82 ± 7%. It also gave an activity at 100000 µM [9, 12] of 115 ± 11%, an activity at 100000 µM [10, 11] of 98 ± 7% and an activity at 100000 µM [10, 12] of 94 ± 9%. The activity at 100000 µM (S49 wild type cells [1]; [11]) was 36 ± 6% and the activity at 100000 µM (S49 wild type cells [1]; [12]) was 65 ± 7%.
